Data from patent US20230183215A1, “Notch Inhibitors and Uses Thereof” (StemSynergy Therapeutics, Inc., priority 2020, published 2023).
Counter-ions that a name gives are not always drawn.

Assays:
[1] = test system: OE33 Esophageal Adenocarcinoma cell line; assay: OE33 Colony Formation Assay; format: cell-based; conditions: Homo sapiens, 200 cells/well, compound every 48 hours for 7 days, CellTiter-Glo
Description: OE33 Colony Formation Assay:
The OE33 Esophageal Adenocarcinoma cell line was cultured and plated into 96-well tissue culture plates under sparse conditions (200 cells/well). Test compounds were serially diluted in DMSO and then into culture media (final DMSO concentration=0.1%). Compound/media was then added to cells every 48 hours for a total of 7 days. Clonogenic growth was assessed using the CellTiter-Glo reagent, according to manufacturer (Promega) specifications. Percent inhibition was calculated as the percent of luminescence normalized to control (0.1% DMSO) wells. Nonlinear regression curve fitting was performed using GraphPad Prism software to determine EC50's.

[2] = molecular target: T1, Notch1 (Homo sapiens, UniProt P46531); assay: Notch1 Reporter Assay (CSL-responsive luciferase, doxycycline-induced Notch-ICD in 293A cells); format: cell-based; conditions: 25 ng/mL Dox, 24 h, luciferase normalized to cell viability
T1 construct: pLV[Tet]-Puro-TRE3G>Notch1-ICD; expressed in transfected cells; host or cells: 293A cells
T1 sequence (P46531 1754-2555 limits assumed): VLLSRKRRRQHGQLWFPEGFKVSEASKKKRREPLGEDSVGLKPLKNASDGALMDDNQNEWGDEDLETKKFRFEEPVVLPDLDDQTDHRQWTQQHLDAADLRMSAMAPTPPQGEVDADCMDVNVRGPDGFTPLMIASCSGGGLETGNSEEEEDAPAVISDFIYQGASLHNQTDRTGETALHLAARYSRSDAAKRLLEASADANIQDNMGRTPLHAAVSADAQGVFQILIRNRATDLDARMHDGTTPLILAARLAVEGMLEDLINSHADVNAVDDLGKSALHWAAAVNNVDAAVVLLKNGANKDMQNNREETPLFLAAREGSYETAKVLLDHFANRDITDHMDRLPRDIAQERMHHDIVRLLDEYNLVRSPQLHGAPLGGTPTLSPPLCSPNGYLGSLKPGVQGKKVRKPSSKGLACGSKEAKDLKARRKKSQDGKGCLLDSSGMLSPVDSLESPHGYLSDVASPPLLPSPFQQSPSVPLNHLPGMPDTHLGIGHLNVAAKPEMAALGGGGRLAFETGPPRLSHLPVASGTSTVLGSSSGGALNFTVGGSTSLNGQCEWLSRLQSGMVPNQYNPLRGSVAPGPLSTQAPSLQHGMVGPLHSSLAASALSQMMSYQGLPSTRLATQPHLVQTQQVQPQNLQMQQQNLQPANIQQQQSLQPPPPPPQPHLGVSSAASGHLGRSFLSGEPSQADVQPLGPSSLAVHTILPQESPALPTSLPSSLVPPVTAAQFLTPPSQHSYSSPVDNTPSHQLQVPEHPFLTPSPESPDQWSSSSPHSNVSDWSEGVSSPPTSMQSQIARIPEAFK
Description: 293A cells expressing 1) pCMV-Tet-On 3G, 2) pLV[Tet]-Puro-TRE3G>Notch1-ICD, 3) pLV[Tet]-Puro-TRE3G>Notch2-ICD, 4) pLV[Tet]-Puro-TRE3G>Notch3-ICD, and 5) pCSL-RElement-Luc were used. When Doxycycline is added, the Tet-ON gene activates expression of hNotch1ICD, which together with endogenous NTC components binds to CSL responsive elements (pCSL-RElement-Luc) and expresses luciferase. 1×10^4 cells are plated in 100 μL (96-well format). 24 h later, compounds (10 mM stock in DMSO) are diluted in DMSO to 200×, then added (5 ul into 1 mL) to cell culture media containing 50 ng/mL Dox. This is then added 1:1 to cells. Final DMSO=0.25%, Dox=25 ng/mL. After 24 h, media is discarded, and cells are lysed in passive lysis buffer (Promega). Cells are rocked at room temperature for 15 min and then lysate is divided for luciferase assay (Luciferase Assay System, Promega) and cell viability (CellTiter Glo 2.0, Promega). Raw luciferase is normalized to cell viability, and then scaled to DMSO wells. Results are analyzed and IC50's are determined in GraphPad by nonlinear regression curve fitting (4 parameter) of dose response curves.

| Structure (SMILES) | EC50 [1] [µM] | IC50 [2] [µM] |
| --- | --- | --- |
| COc1cc(-c2cc(C(F)(F)F)cc3c2n(C)c(=O)n3CC(=O)N(C)c2cccc(Cl)c2)cc(F)c1OCc1nnc[nH]1 [compound 448, 2-(4-(4-((4H-1,2,4-triazol-3-yl)methoxy)-3-fluoro-5-methoxyphenyl)-3-methyl-2-oxo-6-(trifluoromethyl)-2,3-dihydro-1H-benzo[d]imidazol-1-yl)-N-(3-chlorophenyl)-N-methylacetamide hydrochloride] | 2.1 | 2.4 |
| Cn1c(=O)n(CC(=O)N(Cc2nnc[nH]2)c2ccc(F)cc2)c2cc(C(F)(F)F)cc(-c3cc(Cl)c(OCc4nnc[nH]4)c(Cl)c3)c21 [SSTN-594, 2-(4-(4-((4H-1,2,4-triazol-3-yl)methoxy)-3,5-dichlorophenyl)-3-methyl-2-oxo-6-(trifluoromethyl)-2,3-dihydro-1H-benzo[d]imidazol-1-yl)-N-((4H-1,2,4-triazol-3-yl)methyl)-N-(4-fluorophenyl)acetamide] | – | 4.5 |
| COc1cc(-c2cc(C(F)(F)F)cc3c2n(C)c(=O)n3CC(=O)N(C)c2ccc(Cl)cc2)cc(F)c1OCc1nnc[nH]1 [compound 424, 2-(4-(4-((4H-1,2,4-triazol-3-yl)methoxy)-3-fluoro-5-methoxyphenyl)-3-methyl-2-oxo-6-(trifluoromethyl)-2,3-dihydro-1H-benzo[d]imidazol-1-yl)-N-(4-chlorophenyl)-N-methylacetamide hydrochloride] | 1.4 | 3.6 |
| COc1cc(-c2cc(C(F)(F)F)cc3c2n(C)c(=O)n3CC(=O)Nc2cncc(C)c2)cc(F)c1OCc1nnc[nH]1 [SSTN-502, 2-(4-(4-((4H-1,2,4-triazol-3-yl)methoxy)-3-fluoro-5-methoxyphenyl)-3-methyl-2-oxo-6-(trifluoromethyl)-2,3-dihydro-1H-benzo[d]imidazol-1-yl)-N-(5-methylpyridin-3-yl)acetamide hydrochloride] | 8 | 12 |
| COc1cc(-c2cc(C(F)(F)F)cc3c2n(C)c(=O)n3CC(=O)Nc2cccc(S(C)(=O)=O)c2)cc(F)c1OCc1nnc[nH]1 [SSTN-501, 2-(4-(4-((4H-1,2,4-triazol-3-yl)methoxy)-3-fluoro-5-methoxyphenyl)-3-methyl-2-oxo-6-(trifluoromethyl)-2,3-dihydro-1H-benzo[d]imidazol-1-yl)-N-(3-(methylsulfonyl)phenyl)acetamide hydrochloride] | – | 13 |
| Cn1c(=O)n(CC(=O)Nc2ccc(F)cc2)c2cc(C(F)(F)F)cc(-c3cc(Cl)c(OCc4nnc[nH]4)c(Cl)c3)c21 [SSTN-599, 2-(4-(4-((4H-1,2,4-triazol-3-yl)methoxy)-3,5-dichlorophenyl)-3-methyl-2-oxo-6-(trifluoromethyl)-2,3-dihydro-1H-benzo[d]imidazol-1-yl)-N-(4-fluorophenyl)acetamide] | – | 13.9 |
| COc1cc(-c2cc(C(F)(F)F)cc3c2n(C)c(=O)n3CC(=O)Nc2ccc(F)cc2)c(F)cc1OCc1nnc[nH]1 [SSTN-603, 2-(4-(4-((4H-1,2,4-triazol-3-yl)methoxy)-2-fluoro-5-methoxyphenyl)-3-methyl-2-oxo-6-(trifluoromethyl)-2,3-dihydro-1H-benzo[d]imidazol-1-yl)-N-(4-fluorophenyl)acetamide] | 3.8 | 7.4 |
| COc1ccc(NC(=O)Cn2c(=O)n(C)c3c(-c4cc(F)c(OCc5nnc[nH]5)c(OC)c4)cc(C(F)(F)F)cc32)cn1 [SSTN-613, 2-(4-(4-((4H-1,2,4-triazol-3-yl)methoxy)-3-fluoro-5-methoxyphenyl)-3-methyl-2-oxo-6-(trifluoromethyl)-2,3-dihydro-1H-benzo[d]imidazol-1-yl)-N-(6-methoxypyridin-3-yl)acetamide] | – | 9.2 |
| COc1cc(-c2cc(C(F)(F)F)cc3c2n(C)c(=O)n3CC(=O)Nc2ccn(C)n2)cc(F)c1OCc1nnc[nH]1 [SSTN-509, 2-(4-(4-((4H-1,2,4-triazol-3-yl)methoxy)-3-fluoro-5-methoxyphenyl)-3-methyl-2-oxo-6-(trifluoromethyl)-2,3-dihydro-1H-benzo[d]imidazol-1-yl)-N-(1-methyl-1H-pyrazol-3-yl)acetamide hydrochloride] | – | 16.1 |
| COc1cc(-c2cc(C(F)(F)F)cc3c2n(C)c(=O)n3CC(=O)N2CCN(C)CC2)cc(F)c1OCc1nnc[nH]1 [SSTN-544, 4-(4-((4H-1,2,4-triazol-3-yl)methoxy)-3-fluoro-5-methoxyphenyl)-3-methyl-1-(2-(4-methylpiperazin-1-yl)-2-oxoethyl)-6-(trifluoromethyl)-1,3-dihydro-2H-benzo[d]imidazol-2-one] | – | 51.1 |
| COc1cc(-c2cc(F)cc3c2n(C)c(=O)n3CC(=O)N(C)c2ccc(Cl)cc2)cc(F)c1OCc1nc[nH]n1 [compound 384, 2-(4-(4-((1H-1,2,4-triazol-3-yl)methoxy)-3-fluoro-5-methoxyphenyl)-6-fluoro-3-methyl-2-oxo-2,3-dihydro-1H-benzo[d]imidazol-1-yl)-N-(4-chlorophenyl)-N-methylacetamide hydrochloride] | – | 14.2 |
| COc1cc(-c2cc(C(F)(F)F)cc3c2n(C)c(=O)n3CC(=O)Nc2cccc(CN3CCOCC3)c2)cc(F)c1OCc1nnc[nH]1 [SSTN-575, 2-(4-(4-((4H-1,2,4-triazol-3-yl)methoxy)-3-fluoro-5-methoxyphenyl)-3-methyl-2-oxo-6-(trifluoromethyl)-2,3-dihydro-1H-benzo[d]imidazol-1-yl)-N-(3-(morpholinomethyl)phenyl)acetamide] | – | 12.5 |
| COc1cc(-c2cc(C)cc3c2n(C)c(=O)n3CC(=O)Nc2ccc(F)cc2)cc(F)c1OCc1nnc[nH]1 [SSTN-606, 2-(4-(4-((4H-1,2,4-triazol-3-yl)methoxy)-3-fluoro-5-methoxyphenyl)-3,6-dimethyl-2-oxo-2,3-dihydro-1H-benzo[d]imidazol-1-yl)-N-(4-fluorophenyl)acetamide hydrochloride salt] | – | 15.3 |
| COc1cncc(NC(=O)Cn2c(=O)n(C)c3c(-c4cc(F)c(OCc5nnc[nH]5)c(OC)c4)cc(C(F)(F)F)cc32)c1 [SSTN-611, 2-(4-(4-((4H-1,2,4-triazol-3-yl)methoxy)-3-fluoro-5-methoxyphenyl)-3-methyl-2-oxo-6-(trifluoromethyl)-2,3-dihydro-1H-benzo[d]imidazol-1-yl)-N-(5-methoxypyridin-3-yl)acetamide] | – | 20.9 |
| Cn1c(=O)n(CC(=O)N(Cc2nnc[nH]2)c2ccc(F)cc2)c2cc(C(F)(F)F)cc(-c3ccc(OCc4nnc[nH]4)c(F)c3)c21 [SSTN-592, 2-(4-(4-((4H-1,2,4-triazol-3-yl)methoxy)-3-fluorophenyl)-3-methyl-2-oxo-6-(trifluoromethyl)-2,3-dihydro-1H-benzo[d]imidazol-1-yl)-N-((4H-1,2,4-triazol-3-yl)methyl)-N-(4-fluorophenyl)acetamide] | – | 14.8 |
| COc1cc(-c2cc(C(F)(F)F)cc3c2n(C)c(=O)n3CC(=O)Nc2cccc(C#N)c2)cc(F)c1OCc1nnc[nH]1 [SSTN-545, 2-(4-(4-((4H-1,2,4-triazol-3-yl)methoxy)-3-fluoro-5-methoxyphenyl)-3-methyl-2-oxo-6-(trifluoromethyl)-2,3-dihydro-1H-benzo[d]imidazol-1-yl)-N-(3-cyanophenyl)acetamide] | – | 5.8 |
| Cn1c(=O)n(CC(=O)Nc2ccc(F)cc2)c2cc(C(F)(F)F)cc(-c3ccc(OCc4nnc[nH]4)c(F)c3)c21 [SSTN-597, 2-(4-(4-((4H-1,2,4-triazol-3-yl)methoxy)-3-fluorophenyl)-3-methyl-2-oxo-6-(trifluoromethyl)-2,3-dihydro-1H-benzo[d]imidazol-1-yl)-N-(4-fluorophenyl)acetamide] | – | 8.1 |
| COc1cc(-c2cc(C(F)(F)F)cc3c2n(C)c(=O)n3CC(=O)Nc2cncc(C(F)(F)F)c2)cc(F)c1OCc1nnc[nH]1 [SSTN-614, 2-(4-(4-((4H-1,2,4-triazol-3-yl)methoxy)-3-fluoro-5-methoxyphenyl)-3-methyl-2-oxo-6-(trifluoromethyl)-2,3-dihydro-1H-benzo[d]imidazol-1-yl)-N-(5-(trifluoromethyl)pyridin-3-yl)acetamide] | – | 3.4 |
| COc1cc(-c2cc(F)cc3c2n(C)c(=O)n3CC(=O)N(C)c2ccc(F)cc2)cc(F)c1OCc1nnc[nH]1 [compound 425, 2-(4-(4-((4H-1,2,4-triazol-3-yl)methoxy)-3-fluoro-5-methoxyphenyl)-6-fluoro-3-methyl-2-oxo-2,3-dihydro-1H-benzo[d]imidazol-1-yl)-N-(4-fluorophenyl)-N-methylacetamide hydrochloride] | – | 33.5 |
